# Measured values from PMC8268575 (International Journal of Molecular Sciences, 2021).
# Entries after “also recorded” stand apart in the source; their conditions may differ.
# How the values were obtained:
# HUVEC = experiment: Substrate cleavage in HUVEC, supernatant analysed by MALDI-TOF/TOF; assay type: in vitro ADME, human; conditions: 100 µM substrate
# Protocol: (§1) The experiment was independently conducted 4 times. […] The supernatants were desalted and concentrated by use of C18 ZipTips (Merck-Millipore, Burlington, MA, USA) and eluted directly on the MALDI target in 70% acetonitrile/0.1% TFA. Subsequently, a MALDI matrix solution of 2.5 mg/mL α-cyano-4-hydroxycinnamic acid in 70% acetonitrile/0.1% TFA was applied on each spot, air-dried at room temperature, and the target was introduced into a 4800 plus MALDI TOF/TOF^TM Analyzer. Mass spectrometry (MS) spectra (mass range: 600–4000 Da) were acquired in positive reflector mode with a laser intensity of 5000. To confirm the identity of the most important peptides, MS/MS spectra were generated by use of collision induced dissociation with a laser intensity of 5500. Calibration was done during analysis using the 6-peptide mixture (AB Sciex, Framingham, MA, USA). Mass spectra were generated by use of the 4000 Series Explorer and analyzed by mMas. […] The ratio of the peak intensity of the cleaved substrate to the peak intensity of the intact substrate is an indication for the C-terminal cleavage of the substrates. To check for additional cleavage sites, a search for other product peaks was completed. Statistical analysis was performed using SPSS software version 27 (IBM). Two-way ANOVA analysis was conducted to examine the effect of the two independent variables (treatment duration and treatment option) on the ratio of the peak intensities.
# HAoEC = experiment: Substrate cleavage in HAoEC, supernatant analysed by MALDI-TOF/TOF; assay type: in vitro ADME, human
# Protocol: as §1
# recombinant human PREP = target: T1, recombinant human PREP (Homo sapiens, UniProt P48147); experiment: Cleavage by recombinant PREP, MALDI-TOF/TOF; conditions: pH 7.4 (0.1 M potassium phosphate, 1 mM EDTA, 5 mM DTT), 100 µM substrate, 0 s to 1 h
# T1 sequence (P48147 1-710): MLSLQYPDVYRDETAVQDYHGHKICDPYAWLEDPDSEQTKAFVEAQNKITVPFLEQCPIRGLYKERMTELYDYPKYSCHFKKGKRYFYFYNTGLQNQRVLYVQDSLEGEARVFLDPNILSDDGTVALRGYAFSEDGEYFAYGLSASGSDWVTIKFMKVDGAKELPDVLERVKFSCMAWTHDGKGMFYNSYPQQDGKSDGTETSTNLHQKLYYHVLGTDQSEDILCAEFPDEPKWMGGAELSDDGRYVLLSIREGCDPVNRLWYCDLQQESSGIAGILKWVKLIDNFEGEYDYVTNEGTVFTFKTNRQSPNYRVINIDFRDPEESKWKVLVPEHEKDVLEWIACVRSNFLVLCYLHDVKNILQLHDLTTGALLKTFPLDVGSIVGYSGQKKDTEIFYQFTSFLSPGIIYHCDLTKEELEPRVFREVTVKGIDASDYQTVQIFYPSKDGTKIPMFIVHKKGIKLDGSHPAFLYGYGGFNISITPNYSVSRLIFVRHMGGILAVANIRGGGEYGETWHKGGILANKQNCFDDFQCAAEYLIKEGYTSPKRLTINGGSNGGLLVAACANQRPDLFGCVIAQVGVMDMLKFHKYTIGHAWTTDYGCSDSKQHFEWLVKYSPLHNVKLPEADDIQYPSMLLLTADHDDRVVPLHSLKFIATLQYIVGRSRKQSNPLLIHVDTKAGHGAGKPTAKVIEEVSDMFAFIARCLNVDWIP
# Protocol: Supplementary Material File S3. Cleavage by recombinant PREP
# Recombinant human PREP, expressed in BL21 (DE3) cells as previously described, was […]
# (Laboratory for Medicinal Chemistry, University of Antwerp) or vehicle control at pH 7.4 (0.1 M potassium phosphate, 1 mM EDTA and 5 mM DTT). 100 μM substrate ((pyr)-apelin-13, (pyr)-apelin-13(1-12), Ang II or α-MSH 1-13) or vehicle control (PBS) was added. The reaction was stopped by acidification (pH<3) with 0.1% TFA after different time periods (0 s, 30 s, 1 min, 5 min, 15 min, 30 min or 1 h) and samples were stored at -80 °C.
# A search for product peaks of the different peptides was conducted.
# 1. Van Elzen, R.; Schoenmakers, E.; Brandt, I.; Van Der Veken, P.; Lambeir, A.M.
# Ligand-induced conformational changes in prolyl oligopeptidase: A kinetic approach.
# [1] = target: T2, secreted PRCP in HUVEC supernatant (Homo sapiens, UniProt P42785); experiment: Incubation of (pyr)-apelin-13 with 24 h cellular supernatant of HUVEC; assay type: in vitro ADME; conditions: 100 µM substrate
# T2 construct: endogenous in cells; host or cells: HUVEC and HAoEC (cell lysate and culture supernatant)
# T2 sequence (P42785 46-496): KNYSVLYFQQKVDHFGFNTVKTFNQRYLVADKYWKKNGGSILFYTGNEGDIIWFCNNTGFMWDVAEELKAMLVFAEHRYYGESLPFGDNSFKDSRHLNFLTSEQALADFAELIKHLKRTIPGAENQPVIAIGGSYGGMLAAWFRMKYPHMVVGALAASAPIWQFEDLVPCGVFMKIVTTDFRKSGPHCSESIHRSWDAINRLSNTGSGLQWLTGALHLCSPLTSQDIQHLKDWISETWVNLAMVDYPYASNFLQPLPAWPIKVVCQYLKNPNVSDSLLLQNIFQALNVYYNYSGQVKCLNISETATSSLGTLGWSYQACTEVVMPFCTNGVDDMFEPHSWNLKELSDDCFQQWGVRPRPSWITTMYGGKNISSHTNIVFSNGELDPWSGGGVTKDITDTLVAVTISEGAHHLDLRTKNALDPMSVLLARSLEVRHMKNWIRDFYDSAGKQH
# Protocol: Supplementary Material File S4. Incubation of (pyr)-apelin-13 with cellular supernatant HUVEC were seeded at a density of 10 000 cells per well in 96-well plates in 100 µL full medium. After 24 h, medium was replaced by assay medium and the cells were incubated for another 24 h at 37 °C in 5% CO2. After 24 h, cell supernatants were harvested and incubated with vehicle control (1% DMSO) or 1 µM compound 8o for 15 min at 37 °C. Then, 100 μM (pyr)-apelin-13 or vehicle control (PBS) was added. The reaction was stopped by acidification (pH<3) with 0.1% TFA after 1 h and the samples were stored at -80 °C until further processing.
# The experiment was independently conducted 4 times. To detect the cleavage of (pyr)-apelin-13 (m/z 1533.8), the samples were analysed by MALDI-TOF/TOF.
# However, comparing this experiment with the initial experiment where (pyr)-apelin-13 was added to the cells for 24 h (Figure 1 of main manuscript), much less (pyr)-apelin-13 was […]
# terminal (pyr)-apelin-13 cleavage seen in the initial experiment.
# Figure S4.1: Incubation of 24 h cellular supernatant with (pyr)-apelin-13 during 1 h. (Pyr)- […]
# (1 picture or pasted object on this page, not shown here)
# [2] = plasma; cited from earlier work
# Source text: Although (pyr)-apelin-13 has increased stability and a longer plasma half-life in comparison with the non-pyroglutamated isoforms, it still has a short half-life of only minutes. Angiotensin-converting enzyme 2 (ACE2, EC 3.4.17.23) was always considered to be the only enzyme responsible for the hydrolysis of the C-terminal Phe of (pyr)-apelin-13 [28, 29, 30], until we identified PRCP as an apelin-cleaving enzyme in 2016, during the search for new PRCP-substrates based on amino acid sequence. Although many efforts were made to elucidate the importance of this C-terminal P ...
smiles,measurement,setting,value
CSCC[C@H](NC(=O)[C@@H]1CCCN1C(=O)CNC(=O)[C@H](CCCCN)NC(=O)[C@H](Cc1cnc[nH]1)NC(=O)[C@H](CO)NC(=O)[C@H](CC(C)C)NC(=O)[C@H](CCCNC(=N)N)NC(=O)[C@@H]1CCCN1C(=O)[C@H](CCCNC(=N)N)NC(=O)[C@@H]1CCC(=O)N1)C(=O)N1CCC[C@H]1C(=O)N[C@@H](Cc1ccccc1)C(=O)O [(pyr)-apelin-13],"C-terminal cleavage of (pyr)-apelin-13 to (pyr)-apelin-13(1–12), ratio of peak intensities in the supernatant","HUVEC; HUVEC 10,000 cells/well, assay medium (5% full medium in HBSS), 37 °C, 0/2/4/8/24 h, all treatment groups, MALDI-TOF/TOF, n = 4",significant after 24 h
same,Enzyme dependence of cleavage of (pyr)-apelin-13 to (pyr)-apelin-13(1–12),"HUVEC; HUVEC pre-treated 15 min with 1 µM compound 8o (PRCP) and/or 1 µM DX600 (ACE2), 24 h, n = 4",PRCP-dependent
same,Cleavage of (pyr)-apelin-13 to (pyr)-apelin-13(1-6),"HUVEC; HUVEC, MALDI-TOF/TOF",could not be detected
same,"C-terminal cleavage of (pyr)-apelin-13 to (pyr)-apelin-13(1–12), ratio of peak intensities in the supernatant","HAoEC; HAoEC 10,000 cells/well, 100 µM substrate, assay medium (5% full medium in HBSS), 37 °C, 0/2/4/8/24 h, all treatment groups, MALDI-TOF/TOF, n = 4",significant after 24 h
same,Enzyme dependence of cleavage of (pyr)-apelin-13 to (pyr)-apelin-13(1–12),"HAoEC; HAoEC pre-treated 15 min with 1 µM compound 8o (PRCP) and/or 1 µM DX600 (ACE2), 100 µM substrate, 24 h, n = 4",PRCP- and ACE2-dependent
same,Involvement of PRCP and ACE2 in cleavage of (pyr)-apelin-13 to (pyr)-apelin-13(1-6),"HAoEC; HAoEC, 1 µM compound 8o and/or 1 µM DX600, data not shown",none of the studied enzymes were involved
same,Cleavage of (pyr)-apelin-13 to (pyr)-apelin-13(1-6),"HAoEC; HAoEC, all treatment groups, 100 µM substrate, MALDI-TOF/TOF, data not shown",significant from 8 h onwards
same,"C-terminal cleavage of (pyr)-apelin-13 to (pyr)-apelin-13(1–12), earliest observable time","HAoEC; control, PRCP-inhibited and ACE2-inhibited HAoEC, 100 µM substrate, 37 °C, MALDI-TOF/TOF, n = 4",already observable after 8 h
same,Cleavage by recombinant human PREP,recombinant human PREP,did not cleave; also recorded: could not observe
same,C-terminal cleavage of (pyr)-apelin-13 in cell-free 24 h HUVEC supernatant,"[1]; 1 h, 37 °C, MALDI-TOF/TOF, 4 independent experiments",cleaved at its C-terminus after 1 h
same,Extent of PRCP-mediated cleavage in cell-free HUVEC supernatant compared with the cellular experiment,[1]; 1 h versus 24 h with cells,to a much lesser extent
same,half-life,[2],only minutes
